Calls of active or inactive are those of the source. Some results are limits rather than exact numbers.

Drawing on ChEMBL document CHEMBL1201862, “PubChem BioAssay data set” (2004), this text covers EC50, IC50 and AC50 for 13 compounds.

The target of experiment [1] is T1, Short transient receptor potential channel 4 (Mus musculus, UniProt Q9QUQ5).
T1 sequence (Q9QUQ5 whole entry): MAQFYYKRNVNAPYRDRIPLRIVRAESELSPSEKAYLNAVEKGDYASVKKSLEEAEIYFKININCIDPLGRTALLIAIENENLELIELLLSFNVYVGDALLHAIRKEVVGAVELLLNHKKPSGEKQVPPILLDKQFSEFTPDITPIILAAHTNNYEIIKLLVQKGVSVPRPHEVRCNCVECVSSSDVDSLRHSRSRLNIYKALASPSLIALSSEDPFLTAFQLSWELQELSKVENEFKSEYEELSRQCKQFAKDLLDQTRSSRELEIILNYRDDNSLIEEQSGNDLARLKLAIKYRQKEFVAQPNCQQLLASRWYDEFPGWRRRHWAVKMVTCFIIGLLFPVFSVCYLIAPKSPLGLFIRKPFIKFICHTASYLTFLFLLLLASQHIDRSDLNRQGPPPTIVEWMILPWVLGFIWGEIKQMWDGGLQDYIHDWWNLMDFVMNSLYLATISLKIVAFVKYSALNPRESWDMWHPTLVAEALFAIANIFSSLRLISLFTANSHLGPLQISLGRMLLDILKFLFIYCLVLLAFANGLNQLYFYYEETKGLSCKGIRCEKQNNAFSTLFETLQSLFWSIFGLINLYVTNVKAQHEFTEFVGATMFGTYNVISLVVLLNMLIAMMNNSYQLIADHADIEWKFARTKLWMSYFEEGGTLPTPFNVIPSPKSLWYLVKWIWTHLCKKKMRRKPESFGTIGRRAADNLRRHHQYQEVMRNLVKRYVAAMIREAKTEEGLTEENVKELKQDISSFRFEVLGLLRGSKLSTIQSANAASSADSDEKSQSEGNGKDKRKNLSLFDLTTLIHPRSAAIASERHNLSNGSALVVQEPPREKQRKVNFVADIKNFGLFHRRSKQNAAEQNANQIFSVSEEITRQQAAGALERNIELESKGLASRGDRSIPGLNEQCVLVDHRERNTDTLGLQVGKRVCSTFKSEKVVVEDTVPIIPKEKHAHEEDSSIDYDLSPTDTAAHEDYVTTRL
Description: block of DAMGO-driven TRPC4 calcium entry – cell-based, HEK293 TRPC4/mu-opioid, Fluo-4 calcium, dose response (AID 434942).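 Also: potency of inhibitors blocking the TRPC4 calcium response.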 Type of experiment: functional.

The target of experiment [2] is Nonstructural protein 1 (Influenza A virus, UniProt Q194T2). Type of experiment: functional, Influenza A virus (A/California/07/2009(H1N1)).
Sequence of Nonstructural protein 1 (Q194T2 whole entry): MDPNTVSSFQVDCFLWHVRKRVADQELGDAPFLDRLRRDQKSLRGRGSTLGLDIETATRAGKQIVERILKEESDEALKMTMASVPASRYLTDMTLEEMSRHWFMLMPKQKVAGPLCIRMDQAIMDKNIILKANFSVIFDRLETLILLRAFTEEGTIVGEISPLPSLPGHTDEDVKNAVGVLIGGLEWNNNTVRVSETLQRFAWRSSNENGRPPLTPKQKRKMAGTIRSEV
Experiment [3] addresses Glucose-6-phosphate 1-dehydrogenase (Homo sapiens, UniProt P11413). Description: inhibition of Homo sapiens G6PD, dose series – biochemical, fluorescence, selectivity assay for P. falciparum G6PD inhibitor project, dose response (AID 504792). Type of experiment: functional.
For experiment [4], the target named is T2, Histone-lysine N-methyltransferase NSD2 (Homo sapiens, UniProt O96028).
T2 sequence (O96028 whole entry): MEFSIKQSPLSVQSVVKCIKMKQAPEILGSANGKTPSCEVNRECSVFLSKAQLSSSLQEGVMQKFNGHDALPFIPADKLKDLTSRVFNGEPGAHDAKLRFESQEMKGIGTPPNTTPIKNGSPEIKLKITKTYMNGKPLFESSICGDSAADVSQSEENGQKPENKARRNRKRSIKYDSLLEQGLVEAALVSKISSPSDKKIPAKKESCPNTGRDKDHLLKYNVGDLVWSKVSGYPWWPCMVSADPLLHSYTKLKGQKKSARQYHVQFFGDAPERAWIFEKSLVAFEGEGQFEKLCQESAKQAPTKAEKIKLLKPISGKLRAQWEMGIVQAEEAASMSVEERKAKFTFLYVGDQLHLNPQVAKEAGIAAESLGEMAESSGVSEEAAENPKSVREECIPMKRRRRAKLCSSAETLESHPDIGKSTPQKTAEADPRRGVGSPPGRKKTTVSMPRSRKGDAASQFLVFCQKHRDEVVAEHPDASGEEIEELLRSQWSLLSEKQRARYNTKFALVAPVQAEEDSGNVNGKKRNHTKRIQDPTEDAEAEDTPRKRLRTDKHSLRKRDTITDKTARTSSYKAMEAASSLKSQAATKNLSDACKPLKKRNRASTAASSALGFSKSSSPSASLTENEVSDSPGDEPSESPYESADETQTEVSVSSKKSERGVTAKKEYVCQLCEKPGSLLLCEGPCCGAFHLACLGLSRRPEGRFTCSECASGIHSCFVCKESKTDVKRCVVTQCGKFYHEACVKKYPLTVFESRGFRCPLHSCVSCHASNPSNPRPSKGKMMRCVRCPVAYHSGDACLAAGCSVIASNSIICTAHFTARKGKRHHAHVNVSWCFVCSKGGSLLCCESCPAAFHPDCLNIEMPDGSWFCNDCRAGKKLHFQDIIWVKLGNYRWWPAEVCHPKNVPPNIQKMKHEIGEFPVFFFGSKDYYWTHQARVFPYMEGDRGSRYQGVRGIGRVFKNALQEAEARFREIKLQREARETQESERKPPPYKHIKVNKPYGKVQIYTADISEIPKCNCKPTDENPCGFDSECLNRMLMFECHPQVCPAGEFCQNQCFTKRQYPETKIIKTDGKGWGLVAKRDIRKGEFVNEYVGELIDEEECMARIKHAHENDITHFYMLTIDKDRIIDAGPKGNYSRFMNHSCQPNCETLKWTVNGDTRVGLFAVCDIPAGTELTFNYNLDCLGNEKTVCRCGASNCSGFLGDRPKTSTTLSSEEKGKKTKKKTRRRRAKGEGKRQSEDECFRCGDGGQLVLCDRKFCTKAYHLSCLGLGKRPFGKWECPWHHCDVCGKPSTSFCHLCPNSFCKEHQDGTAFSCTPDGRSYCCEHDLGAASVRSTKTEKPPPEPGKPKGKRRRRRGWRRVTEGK
Type of experiment: biochemical.

Experiment [5] has as its system Streptococcus sp. 'group A'. Kind of experiment: Streptococcus pyogenes SK(-)GAS viability under kanamycin – luminescence, BacTiterGlo, confirmation, counter-screen for streptokinase expression inhibitor project, dose response (AID 1900). Type of experiment: functional, organism-based. Background: Counterscreens check selectivity or assay interference.
Experiment [6] is described as follows: Trypanosoma cruzi growth suppression in host cells – NIH3T3 host cells, beta-gal luminescence, confirmation (AID 2044).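 Also: intracellular parasites grown in NIH/3T3 mouse fibroblasts as host cells; luminescent beta-galactosidase reporter signal from transgenic T. cruzi replicating inside host cells; inhibitors lower the luminescence signal.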 Type of experiment: functional, cell-based.
Experiment [7] concerns Streptococcus. Kind of experiment: GAS UMAA2166 growth inhibition – luminescence, BacTiterGlo, counter-screen for streptokinase expression inhibitor project, dose response (AID 1915).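 Also: potency for reduction of bacterial viability or growth.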 Type of experiment: functional, organism-based.
A short description of experiment [8]: nonselective StAR promoter luciferase inhibitors – cell-based, luminescence, luciferase reporter, counter-screen for LRH-1 inverse agonist project, dose response (AID 651969). Type of experiment: functional.
Experiment [9] has as its target T3, Streptokinase A (Streptococcus pyogenes serotype M1, UniProt P10520).
T3 sequence (P10520 whole entry): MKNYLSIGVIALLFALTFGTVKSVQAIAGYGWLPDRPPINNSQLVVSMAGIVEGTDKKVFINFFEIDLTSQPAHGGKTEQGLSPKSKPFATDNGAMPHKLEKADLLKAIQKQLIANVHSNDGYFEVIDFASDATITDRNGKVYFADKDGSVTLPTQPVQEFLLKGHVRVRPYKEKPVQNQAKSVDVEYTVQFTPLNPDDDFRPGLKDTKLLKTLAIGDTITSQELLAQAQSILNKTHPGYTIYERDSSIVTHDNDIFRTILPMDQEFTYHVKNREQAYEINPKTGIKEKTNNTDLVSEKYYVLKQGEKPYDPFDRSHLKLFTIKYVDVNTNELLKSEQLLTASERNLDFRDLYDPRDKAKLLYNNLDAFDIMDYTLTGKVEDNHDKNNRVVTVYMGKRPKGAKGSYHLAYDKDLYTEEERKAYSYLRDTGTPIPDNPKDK
Kind of experiment: viability-normalized secreted streptokinase activity reduction – plasminogen activation absorbance, OD405, dose response (AID 1914).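 Also: secreted streptokinase activity via plasminogen activation per viability signal from cell pellet.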 Type of experiment: functional, Streptococcus pyogenes M1 GAS.

Experiment [10] has as its target Steroidogenic factor 1 (Homo sapiens, UniProt Q13285). Kind of experiment: Counterscreen for inverse agonists of the liver receptor homolog-1 (LRH-1; NR5A2): Luminescence-based cell-based high throughput dose response assay to identify inverse agonists of the Steroidogenic Factor 1 Nuclear Receptor (SF1; NR5A1). Type of experiment: functional.
The nature of experiment [11]: NIH3T3 cell viability loss – ATP luminescence, mouse fibroblasts, counter-screen, dose response (AID 2010).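 Also: cells exposed to compound for about 90 hours before reading.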 Type of experiment: functional, cell-based.
For experiment [12], the target named is Nuclear receptor subfamily 5 group A member 2 (Homo sapiens, UniProt O00482). Type of experiment: functional, cell-based.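 Also: HEK293T cells transfected with LRH-1 and a StAR promoter luciferase reporter; potency for inhibitors that lower LRH-1 driven reporter light.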
Sequence of Nuclear receptor subfamily 5 group A member 2 (O00482 whole entry): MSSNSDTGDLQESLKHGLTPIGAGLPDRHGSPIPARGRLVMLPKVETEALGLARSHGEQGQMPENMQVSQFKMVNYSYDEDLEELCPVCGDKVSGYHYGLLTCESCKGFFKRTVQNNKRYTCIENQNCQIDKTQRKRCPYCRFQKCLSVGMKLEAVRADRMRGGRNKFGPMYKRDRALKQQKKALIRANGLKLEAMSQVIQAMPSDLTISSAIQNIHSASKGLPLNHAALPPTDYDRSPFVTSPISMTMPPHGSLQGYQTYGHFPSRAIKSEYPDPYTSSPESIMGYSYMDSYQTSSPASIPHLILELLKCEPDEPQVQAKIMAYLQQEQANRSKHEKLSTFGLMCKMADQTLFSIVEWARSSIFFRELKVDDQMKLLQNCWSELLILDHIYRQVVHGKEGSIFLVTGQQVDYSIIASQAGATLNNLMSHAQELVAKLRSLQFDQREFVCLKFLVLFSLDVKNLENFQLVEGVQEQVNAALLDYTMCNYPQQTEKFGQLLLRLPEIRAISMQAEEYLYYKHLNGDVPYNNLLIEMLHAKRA
Experiment [13] in a line: blockade of melanocortin 4 receptor signaling – cell-based, plate reader, cherry pick, counter-screen for LGR2 antagonist project, dose response (AID 743444).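 Also: transfected HEK 293 cells stimulated with alpha-MSH peptide; potency of inhibitors of the alpha-MSH evoked signal.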 Type of experiment: functional.
A short description of experiment [14]: non-specific 3'UTR reporter inhibition in Clone20-Shn3RL – cell-based, Renilla luciferase, cherry-picked, counter-screen for Shn3 inhibitor project, dose response (AID 624133). Type of experiment: functional.
Experiment [15] is described as follows: reduction of Shn3 3'UTR-driven luciferase in osteoblasts – cell-based, Clone20 osteoblasts, firefly luciferase, cherry-picked, dose response (AID 624132).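 Also: firefly luciferase luminescence from reporter carrying the Shn3 3'UTR in osteoblasts.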 Type of experiment: functional.
The target in experiment [16] is Cytochrome P450 2D6 (Homo sapiens, UniProt P10635).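 Also: CYP2D6 member of a cytochrome P450 panel assay.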
Sequence of Cytochrome P450 2D6 (P10635 whole entry): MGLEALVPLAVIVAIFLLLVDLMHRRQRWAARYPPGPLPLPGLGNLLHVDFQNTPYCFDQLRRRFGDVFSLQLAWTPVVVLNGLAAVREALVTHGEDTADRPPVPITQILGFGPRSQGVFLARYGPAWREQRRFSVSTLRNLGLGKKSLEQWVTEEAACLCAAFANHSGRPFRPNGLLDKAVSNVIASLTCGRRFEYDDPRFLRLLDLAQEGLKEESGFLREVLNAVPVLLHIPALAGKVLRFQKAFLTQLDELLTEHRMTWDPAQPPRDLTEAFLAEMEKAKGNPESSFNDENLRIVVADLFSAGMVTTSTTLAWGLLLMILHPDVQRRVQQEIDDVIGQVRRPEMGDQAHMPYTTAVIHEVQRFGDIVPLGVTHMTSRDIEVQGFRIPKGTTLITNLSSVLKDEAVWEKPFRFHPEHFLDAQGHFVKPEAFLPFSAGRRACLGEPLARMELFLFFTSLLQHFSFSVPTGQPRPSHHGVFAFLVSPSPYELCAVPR
The target in experiment [17] is Cytochrome P450 2C19 (Homo sapiens, UniProt P33261). Kind of experiment: Cytochrome panel assay with activity outcomes. Panel member name: p450-cyp2c19 Compounds with AC50 equal or less than 10 uM are considered active. Type of experiment: functional. The conditions noted are these: read-out: AC50.
Sequence of Cytochrome P450 2C19 (P33261 whole entry): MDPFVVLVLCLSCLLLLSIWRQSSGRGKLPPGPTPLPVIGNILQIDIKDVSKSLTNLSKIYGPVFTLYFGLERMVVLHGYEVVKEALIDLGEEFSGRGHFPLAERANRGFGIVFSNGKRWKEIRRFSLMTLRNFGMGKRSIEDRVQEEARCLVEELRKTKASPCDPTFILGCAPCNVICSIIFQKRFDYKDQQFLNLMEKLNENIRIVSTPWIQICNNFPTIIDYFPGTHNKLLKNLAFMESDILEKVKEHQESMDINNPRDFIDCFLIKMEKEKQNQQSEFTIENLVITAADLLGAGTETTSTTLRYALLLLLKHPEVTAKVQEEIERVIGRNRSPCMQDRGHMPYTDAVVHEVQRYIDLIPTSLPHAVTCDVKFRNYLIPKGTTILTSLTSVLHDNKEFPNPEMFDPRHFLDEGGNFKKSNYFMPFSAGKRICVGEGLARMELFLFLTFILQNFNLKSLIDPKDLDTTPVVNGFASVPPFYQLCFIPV

Sequence of Glucose-6-phosphate 1-dehydrogenase (P11413 whole entry): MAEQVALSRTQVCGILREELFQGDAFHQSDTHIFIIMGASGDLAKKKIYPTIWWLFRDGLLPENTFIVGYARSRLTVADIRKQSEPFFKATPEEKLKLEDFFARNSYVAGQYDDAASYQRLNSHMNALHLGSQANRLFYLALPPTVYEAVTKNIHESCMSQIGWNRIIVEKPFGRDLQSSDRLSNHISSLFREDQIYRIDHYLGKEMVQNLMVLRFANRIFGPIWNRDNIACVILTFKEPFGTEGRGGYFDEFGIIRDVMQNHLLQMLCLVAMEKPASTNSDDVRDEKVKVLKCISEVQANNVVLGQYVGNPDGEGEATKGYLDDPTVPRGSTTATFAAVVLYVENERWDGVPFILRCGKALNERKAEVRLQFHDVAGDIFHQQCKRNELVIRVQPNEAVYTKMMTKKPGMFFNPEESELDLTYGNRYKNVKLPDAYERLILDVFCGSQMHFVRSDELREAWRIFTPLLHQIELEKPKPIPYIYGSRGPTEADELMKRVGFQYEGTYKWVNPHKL
Sequence of Steroidogenic factor 1 (Q13285 whole entry): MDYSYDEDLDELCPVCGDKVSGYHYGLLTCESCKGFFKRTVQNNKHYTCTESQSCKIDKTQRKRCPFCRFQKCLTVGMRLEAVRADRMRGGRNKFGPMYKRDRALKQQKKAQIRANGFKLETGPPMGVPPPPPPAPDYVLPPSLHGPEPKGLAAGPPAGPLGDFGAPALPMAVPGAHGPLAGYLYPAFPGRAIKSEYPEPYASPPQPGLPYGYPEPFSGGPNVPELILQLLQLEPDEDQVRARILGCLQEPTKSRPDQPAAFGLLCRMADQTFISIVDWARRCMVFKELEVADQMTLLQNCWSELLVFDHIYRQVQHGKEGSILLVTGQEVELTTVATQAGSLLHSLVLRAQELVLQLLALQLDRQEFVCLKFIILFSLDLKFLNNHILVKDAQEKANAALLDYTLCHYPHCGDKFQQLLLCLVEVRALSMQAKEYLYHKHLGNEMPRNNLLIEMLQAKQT

One may read the EC50 as the concentration needed to bring the measured effect to its halfway point. Consider `C=CCN1CCN(C(c2cccc(OC)c2OC)c2nnnn2CCC(C)C)CC1` (configuration not stated), for which the EC50 in experiment [1] was 1.68 µM (active).
Still for that read-out and setting: with `Fc1ccccc1COc1ccc(Br)cc1CNCC1CCCO1` (configuration not stated) the figure was 0.944 µM (active).
Broadly, the IC50 is the concentration at which inhibition is half-maximal. For the compound `O=[N+]([O-])c1ccc(C[n+]2cccc3ccc4cccnc4c32)cc1`, in experiment [2], the IC50 was 7.75 µM (active).
`COc1cc(CNc2ccc3[nH]c(O)nc3c2)ccc1OCc1ccccc1`: the IC50 in [3] was > 80 µM (inactive).
The AC50 is the concentration at which the activity in the assay is half-maximal. As to `CN(C)c1ccc(CN2CC=C(c3ccc(F)cc3)CC2)cc1`, in [4], the AC50 was > 20 µM (inactive). In [2], the half-maximal inhibitory concentration (IC50) is 50.2 µM (active).
On to `Cc1ccc(-c2csc(NC(=O)c3ccc([N+](=O)[O-])o3)n2)cc1`, for which the EC50 in [5] was 1.89 µM (active); in experiment [6], 0.37 µM (active); in experiment [7], > 150 µM (not active); in experiment [9], 62.4 µM (active); in experiment [11] it was 12.2 µM (active). Besides, the IC50 in experiment [8] was 35.9 µM (inactive); in experiment [10], 4.48 µM (active); in experiment [12] it was 35.9 µM (inactive).
As to `COc1ccccc1N1CCN(CCCNC(=O)Nc2ccccc2)CC1`, the EC50 in [1] is 1.88 µM (active).
In the case of `O=C(CN1CCOc2ccccc21)NCc1ccc(F)cc1`, in experiment [13], the AC50 was 29.2 µM (active).
Consider `CCC(O)(c1ccc(OC)cc1)C(CN1CCOCC1)c1ccccc1` (configuration not stated), for which the EC50 in [1] is 5.96 µM (active).
For `COc1cc(O)c(C(CCN2CCN(c3ccccc3)CC2)c2ccc(N(C)C)cc2)c(OC)c1` (configuration not stated), in [2], the IC50 was 18.2 µM (active).
Turning to `CN1c2ccccc2N(C)C1(C)c1cccc2ccccc12`, the EC50 in [6] is 0.544 µM (active); in experiment [11] it was > 30 µM (not active). The IC50 in [2] is 39.3 µM (active).
`O=C(CSc1nnc(-c2ccc(Cl)cc2Cl)n1C1CCCCC1)N1CCCC1`: the EC50 in experiment [1] is 2.37 µM (active). The AC50 in experiment [14] is 23 µM (active); in [15], > 70 µM (inactive).
For `O=C(CSc1nnc(-c2ccc(Cl)cc2Cl)n1C1CCCCC1)NC1CCS(=O)(=O)C1` (configuration not stated), the half-maximal activity concentration (AC50) was 35.5 µM (inconclusive) in experiment [16] and 39.8 µM (inconclusive) in experiment [17]. Moreover, the EC50 in [1] is 1.68 µM (active).
